Values quoted from earlier work in patent US6475978B1, “Method of making water-softening and detergent compositions” (Unilever Home & Personal Care USA a division of Conopco, …, priority 1999, dated 2002).
Read-outs that look alike come from different tables or passages of the source.

Conditions: at 20° C.
[1] = materials with solubility of less than 50 g per 100 g water

| SMILES | Water Solubility [1] | Water Solubility (materials with solubility of at least 50 g per 100 g water) |
| --- | --- | --- |
| O=BO[O-].[Na+] [Sodium perborate anhydrous] | 3.7 g/100 g |  |
| O=P(O)(O)OP(=O)(O)OP(=O)(O)O [Sodium tripolyphosphate anhydrous] | 15 g/100 g |  |
| NC(N)=O [Urea] |  | >100 g/100 g |
